For orientation: IC50 means the concentration that gives 50% inhibition. A higher IC50 goes with a need for much substance.

Consider eleven compounds from patent US6399759B1, “Ant proteases and methods of inhibition” (University of Georgia Research Foundation, Inc., priority 1999, dated 2002).

A short description of series [1]: Isoelectrofocusing (IEF) of the purified proteinases. Format: physicochemical, Solenopsis invicta. Particulars: IEF gels pH 3-10, Serva Test Mix 9 standards. As to the method:
IEF—Isoelectrofocusing of the purified proteinases was performed on precast isoelectric focusing gels (pH 3-10) obtained under the trade designation […] PRECOTES (Cresent Chemical Co., Inc., Hauppauge, N.Y.). Sample preparations and isoelectrofocusing were carried out following instructions provided by Pharmacia and using the Pharmacia Flatbed Electrophoresis Unit.
IEF—Based on Serva Test Mix 9 IEF standards (Cresent Chemical Co., Inc.), the proteinases migrated to the following pI's; Soli E1, 10.0; Soli E2 (3 isoforms), 6.9, 8.3, 8.5; Soli C1, 4.7; and Soli C2, 4.2.

The format of series [2] is physicochemical, Solenopsis invicta. As to the method: (§1) pH analysis—The determination of pH optimum and stability for each enzyme was performed using a Universal Phosphate Buffer system, which is a buffer made from boric acid and phosphoric acid titrated with sodium hydroxide such that the ionic strength is the same at any pH. Briefly, equal volumes of a solution of 80 mM boric acid and a solution of 80 mM phosphoric acid were combined, and 200 mM sodium hydroxide was added to bring the mixture to the desired pH.

A short description of series [3]: pH optimum of the purified proteinases. Format: biochemical, Solenopsis invicta. Conditions: Vmax of substrate hydrolysis, room temperature, pH range 3.0 to 12.0. Here is the method: as §1
Series [4] concerns Soli E2. The experiment in a line: Inhibition of amidolytic activity by synthetic inhibitors. Format: biochemical, Solenopsis invicta.
Series [5] has as its system Soli C2. Described as above. Format: biochemical, Solenopsis invicta.
Series [6] deals with T1, Soli C1 (Solenopsis invicta, UniProt Q7SIG2).
T1 construct: Fourth instar larvae were extracted in a 1:10 (weight/volume) ratio of 20 mM Tris-HCl pH 7.4; from tissue; host or cells: whole Solenopsis invicta 4th instar larvae (buffer extract, acetone precipitation, Q Sepharose peak III, Mono Q, Superdex 75)
It is filed as biochemical.

Series [7] deals with Soli E1. The experiment in a line: Inhibition of amidolytic activity by synthetic inhibitors. It is filed as biochemical, Solenopsis invicta.
In series [8] the target is T1, Soli C1. The experiment in a line: Inhibition of amidolytic activity by naturally occurring protease inhibitors. It is filed as biochemical. Particulars: 10 minutes incubation at 25° C. in 50 mM Tris-HCl, 100 mM NaCl, pH 7.4. Here is the method: (§2) Enzyme Assay—Generally, the amidolytic activities of each proteinase were measured with the substrates MeOSuc-Ala-Ala-Pro-Val-pNA (SEQ ID NO:8) and N-Suc-Ala-Ala-Pro-Phe-pNA (SEQ ID NO:7) in 0.05 M Tris-HCl and 100 mM NaCl pH 7.4 (assay buffer). Release of the pNA group was assayed by monitoring the optical density of the test solution at […]. Enzyme inhibition assays by protein inhibitors were conducted in the same assay buffer using an inhibitor concentration ranging from 0.02-50 nM with a 10 minute preincubation time and with the final enzyme concentration being 1.0 nM. All kinetic studies with substrates and inhibitors were performed at the optimum pH of the individual proteinases, utilizing the following buffers: 150 mM NaCl, 50 mM Tris-HCl pH 8.0 (E1); 150 mM NaCl, 50 mM CHES pH 9.5 (E2 and C2); and 150 mM NaCl, 50 mM CAPS pH 10.0 (C1).

The subject of series [9] is Soli C2. The description is as above. It is filed as biochemical, Solenopsis invicta. Conditions: 10 minutes incubation at 25° C. in 50 mM Tris-HCl, 100 mM NaCl, pH 7.4. As to the method: as §2
Series [10] deals with Soli E1. The description is as above. Format: biochemical, Solenopsis invicta. Conditions: 10 minutes incubation at 25° C. in 50 mM Tris-HCl, 100 mM NaCl, pH 7.4. As to the method: as §2
Series [11] concerns Soli E2. Described as above. Conditions: 10 minutes incubation at 25° C. in 50 mM Tris-HCl, 100 mM NaCl, pH 7.4. It is filed as biochemical, Solenopsis invicta. As to the method: as §2

Where “and” joins values, the source holds several entries; their conditions need not be identical. Identical values can stand only once. Where a SMILES comes first, the peptide text is derived from it. [ ]: non-standard residue; d: D form. The star is where a group is joined. Sta = CC(C)C[C@H](N)[C@@H](O)CC(=O)O; Isovaleryl = CC(C)CC(=O)*

T1 sequence (Q7SIG2 whole entry): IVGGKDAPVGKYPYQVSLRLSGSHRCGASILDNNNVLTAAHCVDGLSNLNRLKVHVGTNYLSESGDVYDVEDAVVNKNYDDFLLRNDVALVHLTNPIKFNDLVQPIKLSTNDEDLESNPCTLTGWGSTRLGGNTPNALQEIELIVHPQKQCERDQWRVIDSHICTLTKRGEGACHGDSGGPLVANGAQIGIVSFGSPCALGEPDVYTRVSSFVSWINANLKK

In turn, “Soli E1: elastase-like serine proteinase, about 23 kDa, from S. invicta 4th instar larvae (IVGGQPATPGEFPHQGSLRV)” gave a pI in series [1] of 10.0. Besides, in [2], the “Stability of enzyme activity” value was “lost their activities fairly quickly over all pHs” and the “pH at which most stable” value worked out at 7.0. The compound further yielded a pH optimum in [3] of 8.0.
Take “Soli C2: chymotrypsin-like serine proteinase, about 28 kDa, from S. invicta 4th instar larvae (IVGGEPAPGGAYPFIVSLQV)”: in [1], the pI amounted to 4.2. Moreover, in [2], the “Stability of enzyme activity” value is listed as “lost their activities fairly quickly over all pHs” and the “pH at which most stable” value turned out to be 8.0. In series [3], the pH optimum was 9.0.
In the case of `O=c1oc(Cl)c(Cl)c2ccccc12` [DCIC, 3,4-dichloroisocoumarin], the “Inhibition of Soli E2 by class-specific proteinase inhibitors (in words)” value with Soli E2 [4] is listed as “inhibited”. For the same compound, the “Inhibition of Soli C2 by class-specific proteinase inhibitors (in words)” value (shortened to “Inhibition of Soli C2”) in the series on Soli C2 [5] is “not Soli C1 or Soli C2, except after long incubation periods”. Moreover, the “Inhibition of Soli C1 by class-specific proteinase inhibitors (in words)” value (“Inhibition of Soli C1” for short) on Soli C1 [6] is reported as “not Soli C1 or Soli C2, except after long incubation periods”. The “Inhibition of Soli E1 by class-specific proteinase inhibitors (in words)” value (“Inhibition of Soli E1” below) in the series with Soli E1 [7] is on record as “inhibited”.
For the compound “Canadian Goose OM Domain III: Domain III of Canadian goose ovomucoid”, the IC50 was > 50 nM with Soli C1 [8], > 50 nM in the series on Soli C2 [9], 1.51 nM in the series on Soli E1 [10] and 27.3 nM in the series on Soli E2 [11].
On to “Soli C1: chymotrypsin-like serine proteinase, about 25 kDa, from S. invicta 4th instar larvae (IVGGDAPVGKYPYQVSLRLSG)”, for which the pI in [1] amounted to 4.7. Further, the “Stability of enzyme activity” value in series [2] is recorded as “stable for several days”. For the same compound, in series [3], the pH optimum is recorded as 9.0-10.5.
As to “Domestic Goose OM Domain III: Domain III of domestic goose ovomucoid”, the IC50 was > 50 nM with Soli C1 [8], > 50 nM with Soli C2 [9], > 50 nM with Soli E1 [10] and 5.58 nM with Soli E2 [11].
For the compound `O=C(O)CN(CCN(CC(=O)O)CC(=O)O)CC(=O)O` [EDTA, ethylenediaminetetraacetate·2H2O], the “Inhibition of Soli C2” value in the series on Soli C2 [5] is “not”. Also, at Soli C1 [6], the “Inhibition of Soli C1” value was “not”. The “Inhibition of Soli E1” value with Soli E1 [7] is recorded as “not”.
With `CC(C)CC(=O)N[C@H](C(=O)N[C@H](C(=O)N[C@@H](CC(C)C)[C@@H](O)CC(=O)N[C@@H](C)C(=O)N[C@@H](CC(C)C)[C@@H](O)CC(=O)O)C(C)C)C(C)C` [Pepstatin] (Isovaleryl-VV[Sta]A[Sta]-OH), in the series with Soli C2 [5], the “Inhibition of Soli C2” value is “not”. For the same compound, at Soli C1 [6], the “Inhibition of Soli C1” value is reported as “not”. Moreover, the “Inhibition of Soli E1” value in the series on Soli E1 [7] was “not”.
As to α1-PI: α-1-Proteinase Inhibitor, the IC50 with Soli C1 [8] is 0.338 nM; with Soli C2 [9], 0.271 nM; in the series with Soli E1 [10] it was 1.2 nM; in the series with Soli E2 [11], 0.604 nM.
As for “Soli E2: elastase-like serine proteinase, about 24 kDa, from S. invicta 4th instar larvae (IVGGQDAAPGEFPHQGSLRLRGSHI)”, the pI in [1] is 6.9 and 8.3 and 8.5. Also, in [2], the “Stability of enzyme activity” value was “lost their activities fairly quickly over all pHs” and the “pH at which most stable” value came out at 8.5. The pH optimum in [3] is given as 8.5-10.
For `CC(C)C[C@H](NC(=O)[C@H]1O[C@@H]1C(=O)O)C(=O)NCCCCN=C(N)N` (relative stereo) [E-64, trans-epoxysuccinyl-L-leucylamido-(4-guanidino)butane], the “Inhibition of Soli C2” value in the series on Soli C2 [5] is recorded as “not”. The “Inhibition of Soli C1” value at Soli C1 [6] is “not”. For the same compound, in the series on Soli E1 [7], the “Inhibition of Soli E1” value is listed as “not”.
